Experimental data reported in patent US6716829B2, “Aldosterone antagonist and cyclooxygenase-2 inhibitor combination therapy to prevent or treat inflammation-related cardiovascular disorders” (Pharmacia Corporation, priority 2000, dated 2004).

System: marker proteins (osteopontin, ED-1, CD-3, ICAM-1, VCAM-1)
Test: Assay C: immunohistochemistry of myocardial tissue (osteopontin, ED-1, CD-3, ICAM-1, VCAM-1)
Type: in vivo, Male Sprague-Dawley rats
Conditions: aldosterone + salt treated rats; eplerenone 100 mg/kg/day
Experimental: The procedure of Assay B was expanded upon in a further study. […] Myocardial tissue from animals in each treatment group was examined after 7, 14, or 30 days of treatment. […] Lesions were preceded by the expression and progressive upregulation of proinflammatory molecules.
Potassium chloride supplementation was added to the saline solution in order to prevent the potential hypokalemia associated with aldosterone excess.
At the time of the surgery, an Alzet 2002 osmotic minipump (Alza Corp., Palo Alto, Calif.) containing either vehicle (9% ethanol/87% propylene glycol/4% dH2O) or 1.0 mg/mL d-aldosterone (Sigma Chemical, St. Louis, Mo.) was inserted subcutaneously at the nape of the neck. Aldosterone was administered at a dose of 0.75 µg/hour. […] Animals were sacrificed from each group (n=8-13) after 7, 14, or 30 days of treatment.
The equatorial regions of the heart were routinely processed into paraffin with an automated tissue processor (Hypercenter XP, Shandon/Lipshaw Inc., Pittsburgh, Pa.) and embedded into fresh paraffin apical side down (Shandon Embedding Center, Shandon/Lipshaw Inc.). Five and 10 µm sections were cut from each block of tissue using a Leica RM2035 rotary microtome (Leica Inc., Houston, Tex.) and mounted on Superfrost/Plus microscope slides (Fisher Scientific, Pittsburgh, Pa.). […]

Row | SMILES | Staining in myocardial tissue for marker proteins (immunohistochemistry)
1 | C[C@]12CCC(=O)C=C1CC[C@@H]1[C@@H]2[C@@H](O)C[C@]2(C=O)[C@@H](C(=O)CO)CC[C@@H]12 [Aldosterone] | Significant expression of osteopontin
2 | COC(=O)[C@@H]1CC2=CC(=O)CC[C@]2(C)[C@@]23O[C@@H]2C[C@@]2(C)[C@@H](CC[C@@]24CCC(=O)O4)[C@H]13 [Eplerenone] | markedly blunted
